The structures appear in SMILES notation.

The target in the test is T1, human tyrosinase (Homo sapiens, UniProt P14679).
T1 construct: endogenous in cells; host or cells: SKMEL 188 human melanoma cell line (lysate)
T1 sequence (P14679 19-529): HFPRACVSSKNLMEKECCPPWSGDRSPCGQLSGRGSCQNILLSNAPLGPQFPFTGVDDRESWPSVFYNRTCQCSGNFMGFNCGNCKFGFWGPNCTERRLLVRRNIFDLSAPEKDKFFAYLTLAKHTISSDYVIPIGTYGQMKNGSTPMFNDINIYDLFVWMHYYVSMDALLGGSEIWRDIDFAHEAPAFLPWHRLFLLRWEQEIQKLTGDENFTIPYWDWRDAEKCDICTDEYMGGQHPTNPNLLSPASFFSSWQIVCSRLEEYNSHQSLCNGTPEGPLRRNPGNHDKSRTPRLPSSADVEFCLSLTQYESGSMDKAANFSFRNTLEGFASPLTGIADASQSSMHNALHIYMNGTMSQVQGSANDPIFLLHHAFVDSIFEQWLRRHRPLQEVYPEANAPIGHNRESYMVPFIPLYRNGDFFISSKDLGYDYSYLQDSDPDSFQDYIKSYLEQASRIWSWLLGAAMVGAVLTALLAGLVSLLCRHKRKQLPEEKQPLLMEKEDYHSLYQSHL
Put plainly: Tyrosinase (DOPA Oxidase) Assay Using Cell Lysate. The format is biochemical. Conditions: SKMEL 188 human melanoma cell lysates, L-DOPA 100 μg/ml, incubated 8 hrs, read at 405 nm. On the procedure: 1. Tyrosinase (DOPA Oxidase) Assay Using Cell Lysate
Human melanoma cell line, SKMEL 188 (licensed from Memorial Sloan-Kettering), is used in the cell lysate assay and the screen. In the assay, compounds and L-dihydroxyphenylalanine (L-DOPA) (100 μg/ml) are incubated with the cell lysates containing human tyrosinase for 8 hrs before the plates are read at 405 nm.

For the molecule `Cc1ccc(S(=O)(=O)N[C@H]2CC[C@H](c3ccc(O)cc3O)CC2)cc1` [Example 14, N-[trans-4-(2,4-Dihydroxyphenyl)cyclohexyl]-4-methylbenzenesulfonamide], the half-inhibitory concentration (IC50) (usually the midpoint of a concentration-inhibition curve) was around 4 µM.

For the origin of these results see patent US7282592B2, “Resorcinol derivatives” (Warner-Lambert Company, priority 2000, dated 2007).
